From ChEMBL document CHEMBL1201862, “PubChem BioAssay data set” (2004) come the findings set out here.

Assay [1] addresses T1, Alkaline phosphatase, tissue-nonspecific isozyme (Homo sapiens, UniProt P05186).
T1 sequence (P05186 whole entry): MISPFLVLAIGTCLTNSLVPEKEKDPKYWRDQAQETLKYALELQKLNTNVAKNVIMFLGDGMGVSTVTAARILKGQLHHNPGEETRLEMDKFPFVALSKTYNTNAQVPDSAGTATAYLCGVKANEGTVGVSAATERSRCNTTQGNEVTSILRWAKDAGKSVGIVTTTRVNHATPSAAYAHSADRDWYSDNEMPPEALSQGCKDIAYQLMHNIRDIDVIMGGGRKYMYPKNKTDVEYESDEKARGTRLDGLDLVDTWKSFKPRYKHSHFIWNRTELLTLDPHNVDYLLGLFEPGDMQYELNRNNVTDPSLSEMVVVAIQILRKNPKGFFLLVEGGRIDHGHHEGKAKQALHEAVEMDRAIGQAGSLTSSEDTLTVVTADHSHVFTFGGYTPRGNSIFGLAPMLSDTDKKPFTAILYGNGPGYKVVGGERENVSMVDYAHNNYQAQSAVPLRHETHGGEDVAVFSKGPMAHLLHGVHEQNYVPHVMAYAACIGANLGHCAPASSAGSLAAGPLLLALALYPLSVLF
The assay is described as follows: TNAP enzyme activators, dose response, selectivity assay for mouse IAP activator project, biochemical, TNAP isozyme, mouse IAP uHTS hits (AID 488880). The assay is classed as functional.

Assay [2] deals with Bifunctional protein GlmU (Mycobacterium tuberculosis, UniProt P9WMN3). The assay is described as follows: Inhibitors of Mycobacterial Glucosamine-1-phosphate acetyl transferase (GlmU). Secondary screen. Further details: species or system Mycobacterium tuberculosis H37Rv.
The target of the next assay is Keap1/Nrf2 (Homo sapiens, UniProt Q14145). The assay is described as follows: Keap1-Nrf2 protein-protein interaction inhibitors, dose response, biochemical, fluorescence polarization, cherry-picked samples (AID 588683).
The next assay deals with Large T antigen (Simian virus 40, UniProt P03070). It is filed as functional, Betapolyomavirus macacae.
The target of assay [3] is Intestinal-type alkaline phosphatase (Mus musculus, UniProt P24822). In words: mouse intestinal alkaline phosphatase activators, dose response, biochemical, luminescence, uHTS hits (AID 488783). It is filed as functional.
The target in a further assay is Troponin, cardiac muscle (Homo sapiens, UniProt P19429+P45379+P63316). In words: Fluorescence-based biochemical high throughput dose response assay for activators of the calcium sensitivity of cardiac Regulated Thin Filaments (RTF). [Related pubchem assays (depositor defined):AID493008, AID493018, AID504382, AID504383]. It is filed as protein-complex assay.
The target of assay [4] is Intestinal-type alkaline phosphatase (Homo sapiens, UniProt P09923). In words: activation of human intestinal alkaline phosphatase – biochemical, dose response (AID 488873). It is filed as functional.
In assay [5] the target is T2, Dual specificity protein phosphatase 6 (Rattus norvegicus, UniProt Q64346).
T2 sequence (Q64346 whole entry): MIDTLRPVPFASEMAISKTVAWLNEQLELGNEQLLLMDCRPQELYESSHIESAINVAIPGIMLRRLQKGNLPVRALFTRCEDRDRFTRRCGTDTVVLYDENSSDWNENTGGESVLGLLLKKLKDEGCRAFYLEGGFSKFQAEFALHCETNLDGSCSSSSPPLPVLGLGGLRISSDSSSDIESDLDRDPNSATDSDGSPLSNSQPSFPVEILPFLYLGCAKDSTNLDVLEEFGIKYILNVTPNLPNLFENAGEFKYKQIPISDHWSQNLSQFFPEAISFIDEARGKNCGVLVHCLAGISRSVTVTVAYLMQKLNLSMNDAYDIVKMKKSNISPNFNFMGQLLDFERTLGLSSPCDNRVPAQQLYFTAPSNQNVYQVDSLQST
In words: MKP-3 phosphatase inhibitors, primary screen, biochemical, rat enzyme, in vitro (AID 425).

Assay [6] deals with T3, Dual specificity protein phosphatase 3 (Homo sapiens, UniProt P51452). In words: VHR1 phosphatase inhibitors, primary screen, biochemical, absorbance, uHTS (AID 1654).
Assay [7] addresses Tyrosine-protein phosphatase non-receptor type 12 (Homo sapiens, UniProt Q05209). In words: SAR Selectivity Analysis of small molecule inhibitors of PEST using pCAP in a fluorescence assay. [Related pubchem assays (depositor defined):AID1779, AID1784, AID2135]. The assay is classed as functional.
Another assay addresses Genome polyprotein (dengue virus type 2, UniProt P29990). The assay is described as follows: Dengue-2 NS5 methyltransferase inhibitors, primary screen, biochemical, confirmation dose response (AID 588689). The assay is classed as functional.
Assay [8] concerns the target T4, Tyrosine-protein phosphatase non-receptor type 7 (Homo sapiens, UniProt P35236).
T4 sequence (P35236 whole entry): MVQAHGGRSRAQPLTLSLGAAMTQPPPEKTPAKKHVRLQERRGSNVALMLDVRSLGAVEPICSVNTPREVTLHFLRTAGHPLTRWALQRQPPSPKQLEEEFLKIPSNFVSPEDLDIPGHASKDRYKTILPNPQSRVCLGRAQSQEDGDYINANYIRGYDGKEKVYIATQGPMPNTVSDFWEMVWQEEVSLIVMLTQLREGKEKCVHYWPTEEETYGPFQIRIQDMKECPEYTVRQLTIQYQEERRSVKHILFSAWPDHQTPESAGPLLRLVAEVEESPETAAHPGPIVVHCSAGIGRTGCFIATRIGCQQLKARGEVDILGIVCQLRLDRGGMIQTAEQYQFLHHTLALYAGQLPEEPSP
The assay is described as follows: redox-dependent HePTP inhibition, mechanism study, biochemical, fluorescence (AID 2068). It is filed as functional.

In assay [9] the target is T3, Dual specificity protein phosphatase 3. The assay is described as follows: SAR VHR1 Fluorescent Assay for In Vitro dose response studies. [Related pubchem assays (depositor defined):AID1654, AID1661, AID1878, AID1992, AID2004, AID2070, AID2085]. The assay is classed as functional.
The target of assay [10] is T5, Tyrosine-protein phosphatase non-receptor type 22 (Homo sapiens, UniProt Q9Y2R2).
T5 sequence (Q9Y2R2 whole entry): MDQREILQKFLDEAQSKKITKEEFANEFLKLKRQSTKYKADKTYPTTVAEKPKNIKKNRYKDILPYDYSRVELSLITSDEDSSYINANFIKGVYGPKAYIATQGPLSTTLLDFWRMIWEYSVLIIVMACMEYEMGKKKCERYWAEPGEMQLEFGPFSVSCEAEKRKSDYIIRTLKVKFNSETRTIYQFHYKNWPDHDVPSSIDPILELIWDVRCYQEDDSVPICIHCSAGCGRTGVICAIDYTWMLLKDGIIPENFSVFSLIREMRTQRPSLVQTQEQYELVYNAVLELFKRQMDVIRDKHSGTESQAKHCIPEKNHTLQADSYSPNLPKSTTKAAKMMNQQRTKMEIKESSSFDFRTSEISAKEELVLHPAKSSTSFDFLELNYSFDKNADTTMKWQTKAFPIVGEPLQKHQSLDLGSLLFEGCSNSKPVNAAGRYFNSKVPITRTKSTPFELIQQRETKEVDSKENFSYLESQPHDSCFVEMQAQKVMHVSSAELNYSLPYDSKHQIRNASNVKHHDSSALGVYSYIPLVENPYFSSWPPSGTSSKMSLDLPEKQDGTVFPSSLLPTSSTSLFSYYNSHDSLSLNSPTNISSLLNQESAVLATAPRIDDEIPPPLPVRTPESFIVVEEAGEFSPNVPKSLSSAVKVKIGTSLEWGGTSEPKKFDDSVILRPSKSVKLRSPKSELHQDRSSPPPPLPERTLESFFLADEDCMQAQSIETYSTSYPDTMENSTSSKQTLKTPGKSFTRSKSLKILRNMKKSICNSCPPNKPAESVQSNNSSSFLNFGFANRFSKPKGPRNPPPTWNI
The assay is described as follows: LYP (PTPN22) phosphatase inhibitor potency, SAR follow-up, biochemical, pCAP fluorogenic substrate, fluorescence, set 3 (AID 449727). It is filed as functional.

Assay [11] has as its target T3, Dual specificity protein phosphatase 3. In words: VHR1 phosphatase inhibitors, biochemical (AID 1878).
Assay [12] concerns the target T2, Dual specificity protein phosphatase 6. It is filed as functional.
The target in assay [13] is T5, Tyrosine-protein phosphatase non-receptor type 22. The assay is described as follows: SAR LYP1 Fluorescent Assay using OMFP substrate for In Vitro dose response studies - Set 3. [Related pubchem assays (depositor defined):AID1779, AID1784, AID2140, AID2686]. It is filed as functional.
The target of assay [14] is T6, Apoptotic protease-activating factor 1 (Homo sapiens, UniProt O14727).
T6 sequence (O14727 whole entry): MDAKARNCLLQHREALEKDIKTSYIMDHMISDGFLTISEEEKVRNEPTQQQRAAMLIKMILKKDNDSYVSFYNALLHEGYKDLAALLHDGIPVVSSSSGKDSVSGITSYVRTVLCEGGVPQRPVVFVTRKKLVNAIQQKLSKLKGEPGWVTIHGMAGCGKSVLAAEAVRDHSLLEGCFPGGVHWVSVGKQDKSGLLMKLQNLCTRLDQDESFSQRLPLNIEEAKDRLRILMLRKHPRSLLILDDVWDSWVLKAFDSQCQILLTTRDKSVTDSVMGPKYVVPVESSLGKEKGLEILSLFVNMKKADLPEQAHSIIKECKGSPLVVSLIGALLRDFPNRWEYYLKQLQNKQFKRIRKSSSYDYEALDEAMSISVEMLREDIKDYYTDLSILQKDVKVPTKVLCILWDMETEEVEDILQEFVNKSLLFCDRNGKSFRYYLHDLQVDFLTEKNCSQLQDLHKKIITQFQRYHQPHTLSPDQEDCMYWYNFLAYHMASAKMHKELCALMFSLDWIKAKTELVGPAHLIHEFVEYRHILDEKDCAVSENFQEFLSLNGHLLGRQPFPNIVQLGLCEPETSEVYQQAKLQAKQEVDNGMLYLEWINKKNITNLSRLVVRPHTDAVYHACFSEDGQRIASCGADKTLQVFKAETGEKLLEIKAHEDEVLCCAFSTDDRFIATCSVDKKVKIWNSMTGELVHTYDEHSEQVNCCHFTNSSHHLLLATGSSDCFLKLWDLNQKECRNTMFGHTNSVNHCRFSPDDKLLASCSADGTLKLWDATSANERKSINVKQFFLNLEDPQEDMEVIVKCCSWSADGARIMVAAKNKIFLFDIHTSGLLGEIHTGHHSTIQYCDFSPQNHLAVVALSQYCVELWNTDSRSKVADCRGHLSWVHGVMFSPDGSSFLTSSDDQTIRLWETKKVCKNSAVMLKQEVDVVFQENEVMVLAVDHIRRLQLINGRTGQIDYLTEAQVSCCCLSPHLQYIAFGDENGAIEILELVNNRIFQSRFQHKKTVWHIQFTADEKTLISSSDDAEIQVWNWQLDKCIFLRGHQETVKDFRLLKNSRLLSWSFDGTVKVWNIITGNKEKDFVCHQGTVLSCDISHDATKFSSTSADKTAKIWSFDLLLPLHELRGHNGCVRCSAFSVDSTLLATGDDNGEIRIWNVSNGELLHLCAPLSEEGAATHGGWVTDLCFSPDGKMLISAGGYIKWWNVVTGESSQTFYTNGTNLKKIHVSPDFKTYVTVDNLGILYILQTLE
In words: activation of Apaf-1 mediated apoptosis – fluorescent, uHTS hits, dose response (AID 588554). It is filed as functional.

The target in assay [15] is T3, Dual specificity protein phosphatase 3. In words: SAR VHR1 absorbance Assay for In Vitro dose response studies. [Related pubchem assays (depositor defined):AID1654, AID1661, AID1878, AID1992, AID2004].
Assay [16] shares this target. The assay is described as follows: SAR VHR1 Fluorescent Assay for In Vitro dose response studies Set 3. [Related pubchem assays (depositor defined):AID1654, AID1661, AID1878]. It is filed as functional.
The target of assay [17] is Cyclin-dependent kinase 5/CDK5 activator 1 (Homo sapiens, UniProt Q00535). In words: CDK5/p35 kinase inhibitors, dose response, biochemical, cherry-picked samples, set 2 (AID 504545).
Assay [18] in a line: cytotoxicity in HEK-293T NF-kB-Luc cells, dose response, cytotoxicity control for B/T-cell NF-kB inhibitor project, cell-based, uHTS hits (AID 489019).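 Also: IC50 reflects cytotoxicity as loss of cell viability.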 It is filed as functional.
The subject of a further assay is Jurkat. The assay is described as follows: antigen receptor-induced NF-kB inhibitors, dose response, Jurkat, luciferase reporter, luminescence, B- and T-cell (AID 489004).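 Also: NF-kB luciferase reporter Jurkat cells stimulated with PMA plus ionomycin.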 The settings on record: Homo sapiens. It is filed as functional, cell-based. In general terms: Reporter assays use an easily measured gene product as a stand-in for the process of interest.

Molecules are shown by their SMILES. Active and inactive are the calls of the source.

On to `Cc1ccc(/C=C2/SC(=O)NC2=S)o1`, for which the half-maximal effective concentration (EC50) (usually the concentration that produces a half-maximal response) in assay [1] was 45.5 µM (active); in assay [3], 21.8 µM (active); on Troponin, cardiac muscle, 17.9 µM (inactive); in assay [4], 41.4 µM (active). The IC50 (in general, the concentration needed to halve the response being measured) in [2] was 170 µM (active); at Large T antigen, > 100 µM (active). Moreover, the AC50 (usually the midpoint of the concentration-response curve, whichever way the signal moves) at Keap1/Nrf2 was > 52 µM (inactive).

Turning to `CCc1ccc(NC2=NC(=O)/C(=C/c3cc(Br)c(OCC(=O)O)c(OC)c3)S2)cc1`, the IC50 is 84.5 µM (active) in [5]; 10.5 µM (active) in [6]; 2.78 µM (active) in assay [7]; 39.5 µM (active) at Genome polyprotein; 0.28 µM (active) in [8]; 0.878 µM (active) in assay [9]. The IC50 in [10] was 6.74 µM (active); in [11], 3.93 µM (active); in assay [12], 44.9 µM (active); in assay [13], 10.3 µM (active); in assay [15] it was 3.62 µM (active). In assay [14], the EC50 is 15.8 µM (active).

Take `Cc1cc(Cl)cc2sc(N(Cc3cccnc3)C(=O)c3cccc(N4C(=O)CCC4=O)c3)nc12`: the IC50 in assay [16] was 58.2 µM (active).

With `C=CC(=O)Nc1ccc(Nc2nc(N[C@H]3CC[C@H](N(C)C)CC3)nc3c2ncn3C(C)C)cc1`, the AC50 in [17] was 1.48 µM (active). Moreover, the IC50 was > 80 µM (inactive) in [18] and 0.17 µM (active) in the assay with Jurkat.
